According to patent US10947188B2, “Small molecule ferroptosis inducers” (THE TRUSTEES OF COLUMBIA UNIVERSITY IN THE CITY OF NEW YORK, priority 2016, dated 2021):

Test system: HT-1080
Assay: Modulatory profiling: Alamar Blue viability, lethal compound cotreated with death modulator (EC50, AUC); on AUC HT.BHA: reference of the scale not given here; on AUC HT.EGTA: reference of the scale not given here
Assay type: cell-based
Parameters: AUC, modulator HT.3MA / AUC, modulator HT.ALLN / AUC HT.ATA / AUC HT.ActD / AUC HT.BHA / AUC HT.BHT / AUC HT.BocD / AUC HT.CHX / AUC HT.Co2+ / AUC HT.DPQ / AUC HT.EGTA / AUC HT.Lmim / AUC HT.NAD+ / AUC HT.Nec-1 / AUC HT.SP600125 / AUC HT.TLCK / AUC HT.U0126: unit not given beside the values
Conditions: for AUC HT.ATA: HT-1080, modulator ATA; for AUC HT.ActD: HT-1080, modulator ActD; for AUC HT.BHA: HT-1080, modulator BHA; for AUC HT.BHT: HT-1080, modulator BHT; for AUC HT.BocD: HT-1080, modulator BocD; for AUC HT.CHX: HT-1080, modulator CHX; for AUC HT.Co2+: HT-1080, modulator Co2+; for AUC HT.CspA: HT-1080, modulator CspA; for AUC HT.DPQ: HT-1080, modulator DPQ; for AUC HT.EGTA: HT-1080, modulator EGTA; for AUC HT.Gd3+: HT-1080, modulator Gd3+; for AUC HT.LNAME: HT-1080, modulator LNAME; for AUC HT.Lmim: HT-1080, modulator Lmim; for AUC HT.NAD+: HT-1080, modulator NAD+; for AUC HT.NMMA: HT-1080, modulator NMMA; for AUC HT.Nec-1: HT-1080, modulator Nec-1; for AUC HT.Pepstatin: HT-1080, modulator Pepstatin; for AUC HT.SP600125: HT-1080, modulator SP600125; for AUC HT.TLCK: HT-1080, modulator TLCK; for AUC HT.U0126: HT-1080, modulator U0126; for HT.atoc (AUC) / HT.bCarotene (AUC) / HT.deferox (AUC) / HT.digoxin (AUC) / HT.trolox (AUC) / HT.zVAD (AUC): HT-1080; for HT.atoc (AUC): modulator atoc; for HT.bCarotene (AUC): modulator bCarotene; for HT.deferox (AUC): modulator deferox; for HT.digoxin (AUC): modulator digoxin; for HT.trolox (AUC): modulator trolox; for HT.zVAD (AUC): modulator zVAD; for AUC, modulator HT.3MA / AUC, modulator HT.ALLN: HT-1080 cells, modulatory profile value (AUC); for AUC, modulator HT.3MA: lethal compound cotreated with modulator 3MA; for AUC, modulator HT.ALLN: lethal compound cotreated with modulator ALLN

SMILES | AUC HT.ATA | AUC HT.ActD | AUC HT.BHA | AUC HT.BHT | AUC HT.BocD | AUC HT.CHX | AUC HT.Co2+ | AUC HT.CspA | AUC HT.DPQ | AUC HT.EGTA | AUC HT.Gd3+ | AUC HT.LNAME | AUC HT.Lmim | AUC HT.NAD+ | AUC HT.NMMA | HT.atoc (AUC) | HT.bCarotene (AUC) | HT.deferox (AUC) | HT.digoxin (AUC) | HT.trolox (AUC) | other results
COc1cc([C@@H]2c3cc4c(cc3[C@H](O)[C@H]3COC(=O)[C@H]23)OCO4)cc(OC)c1OC [Podophyllotoxin] | 0.1206 | −0.0009195 | 0.02739 | 0.0008586 | 0.0984 | 0.07197 | 0.1102 | −0.07592 | 0.005964 | 0.01145 | 0.00916 | −0.004926 | 0.1098 | 0.1318 | 0.000472 | −0.02023 | 0.0009225 | 0.3104 | 0.1098 | 0.0103 | AUC HT.Nec-1: −0.0001825; AUC HT.Pepstatin: −0.0005129; AUC HT.SP600125: −0.02768; AUC HT.TLCK: 0.06978; AUC HT.U0126: 0.1354; HT.zVAD (AUC): 0.09402; AUC, modulator HT.3MA: 0.001351; AUC, modulator HT.ALLN: 0.1572
CCCCNc1cc(C)nc(NCc2ccccc2)n1 [CIL18] | 0.001415 | 0.0184 | −0.08703 | −0.1394 | 0.06607 | 0.1179 | 0.1598 | −0.04827 | −0.01276 | −0.009461 | −0.03302 | 0.01329 | −0.004987 | 0.09493 | −0.02918 | 0.1295 | −0.0001406 | −0.009951 | −0.004198 | −0.01205 | HT.zVAD (AUC): 0.0101; AUC, modulator HT.3MA: 0.01461; AUC, modulator HT.ALLN: 0.07303
OCCNCC(O)Cn1c2ccc(Br)cc2c2cc(Br)ccc21 (stereo not drawn) [CIL7] | −0.01671 | −0.01197 | −0.06352 | −0.103 | 0.07799 | 0.0511 | 0.1062 | −0.06441 | 0.005254 | 0.006456 | −0.02982 | 0.01998 | −0.002674 | 0.07707 | −0.02442 | 0.02896 | −0.0174 | −0.05071 | 0.003869 | −0.006321 | AUC HT.Nec-1: 0.007138; AUC HT.Pepstatin: −0.00124; AUC HT.SP600125: −0.04155; AUC HT.TLCK: −0.01113; AUC HT.U0126: 0.01556; HT.zVAD (AUC): −0.03773; AUC, modulator HT.3MA: −0.004626; AUC, modulator HT.ALLN: 0.1136
CCCS(=O)(=O)c1nnnn1-c1cccc(OC)c1 [CIL15] | −0.002809 | 0.01242 | −0.03993 | −0.1489 | 0.1021 | 0.06342 | 0.1397 | −0.007032 | −0.02394 | −0.0006158 | −0.03881 | 0.001309 | −0.04837 | 0.01762 | −0.01943 | 0.1224 | −0.003906 | 0.04237 | −0.01238 | −0.02956 | HT.zVAD (AUC): −0.04682; AUC, modulator HT.3MA: 0.0263; AUC, modulator HT.ALLN: 0.0001245
CC(C)[C@@H]1NC(=O)[C@H](C)OC(=O)[C@@H](C(C)C)NC(=O)[C@@H](C(C)C)OC(=O)[C@H](C(C)C)NC(=O)[C@H](C)OC(=O)[C@@H](C(C)C)NC(=O)[C@@H](C(C)C)OC(=O)[C@H](C(C)C)NC(=O)[C@H](C)OC(=O)[C@@H](C(C)C)NC(=O)[C@@H](C(C)C)OC1=O [Vatinomycin] | 0.04039 | 0.0779 | −0.01263 | −0.05233 | 0.01496 | 0.1024 | −0.06183 | −0.03789 | 0.1702 | −0.04483 | −0.004524 | −0.03843 | 0.1163 | 0.07833 | −0.002681 | 0.2292 | −0.01526 | 0.004145 | −0.1615 | 0.04463 | AUC HT.Nec-1: 0.08394; AUC HT.Pepstatin: 0.0197; AUC HT.SP600125: −0.161; AUC HT.TLCK: 0.02961; AUC HT.U0126: 0.005482; HT.zVAD (AUC): −0.05753; AUC, modulator HT.3MA: −0.1653; AUC, modulator HT.ALLN: 0.04228
COc1cccc2c1C(=O)c1c(O)c3c(c(O)c1C2=O)C[C@@](O)(C(=O)CO)C[C@@H]3O[C@H]1C[C@H](N)[C@H](O)[C@H](C)O1 [Doxorubicin] | 0.02841 | 0.007993 | 0.02167 | −0.06815 | 0.05959 | 0.08993 | 0.2627 | −0.1098 | 0.01107 | 0.03492 | 0.03741 | 0.006685 | 0.08822 | 0.1872 | 0.02832 | 0.00993 | 0.01512 | 0.2044 | 0.1981 | −0.01413 | AUC HT.Nec-1: 0.007577; AUC HT.Pepstatin: 0.008958; AUC HT.SP600125: −0.02148; AUC HT.TLCK: 0.0633; AUC HT.U0126: −0.02036; HT.zVAD (AUC): 0.05138; AUC, modulator HT.3MA: 0.03088; AUC, modulator HT.ALLN: 0.03102
CC[C@]1(O)C[C@H]2CN(CCc3c([nH]c4ccccc34)[C@@](C(=O)OC)(c3cc4c(cc3OC)N(C=O)[C@H]3[C@@](O)(C(=O)OC)[C@H](OC(C)=O)[C@]5(CC)C=CCN6CC[C@]43[C@@H]65)C2)C1 [Vincristine] | 0.1304 | 0.05976 | −0.004754 | −0.01568 | 0.1401 | 0.08269 | 0.217 | −0.1876 | 0.01267 | 0.009231 | −0.0009641 | 0.001779 | 0.1155 | 0.1699 | 0.004831 | 0.01853 | 0.01182 | 0.3217 | 0.142 | −0.01599 | AUC HT.Nec-1: 0.02188; AUC HT.Pepstatin: 0.000262; AUC HT.SP600125: 0.0008998; AUC HT.TLCK: −0.006394; AUC HT.U0126: 0.1926; HT.zVAD (AUC): 0.1172; AUC, modulator HT.3MA: 0.0299; AUC, modulator HT.ALLN: 0.1869
